Values quoted from earlier work in patent US9788539B2, “Platelet protection solution having beta-galactosidase and sialidase inhibitors” (Velico Medical, Inc., priority 2011, dated 2017).

Target: viral, bacterial and mammalian sialidases
Conditions: cited from earlier work

## CC(=O)NC1C(O)C=C(C(=O)O)OC1C(O)C(O)CO (stereo not shown) [DANA]
  Ki: low μM range
